Among the test systems are ACHN renal; BT-549 breast; EKVX NSCLC; HOP-62 NSCLC; NCI-H23 lung; PC-3 prostate; SF-539 CNS; SK-MEL-28 melanoma.
Assay in all cases: DTP human tumour cell line panel, 48 h

For ten compounds, TGI and GI50 results are on record in PubChem BioAssay (NCI).

The TGI is the concentration at which net growth stops. Higher therefore signals lower sensitivity of the cells. A word on the GI50: it is the concentration giving 50% growth inhibition.

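These data come from cells grown in 96-well plates and exposed to compound for 48 hours at five concentrations. Abbreviation: GI50, concentration required for 50% inhibition of growth. Definition used: TGI = concentration required for complete inhibition of growth.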

On to `Nc1nc(=O)c2[nH]cnc2n1O`, for which the TGI in the assay on ACHN renal, in the assay on BT-549 breast, in the assay with EKVX NSCLC, with HOP-62 NSCLC, in the assay with NCI-H23 lung and in the assay on PC-3 prostate was more than 100 µM throughout. The TGI in the assay with SF-539 CNS and in the assay on SK-MEL-28 melanoma was more than 100 µM in each case.
With `N=C(N)c1ccc(CS(=O)(=O)F)cc1`, the GI50 in the assay on ACHN renal, in the assay on BT-549 breast, with EKVX NSCLC, in the assay with HOP-62 NSCLC, in the assay on NCI-H23 lung and with PC-3 prostate was more than 100 µM throughout. Further, the GI50 in the assay on SF-539 CNS and in the assay with SK-MEL-28 melanoma was more than 100 µM each time. In addition, the TGI with ACHN renal, in the assay on BT-549 breast, in the assay on EKVX NSCLC, in the assay on HOP-62 NSCLC, in the assay with NCI-H23 lung and in the assay on PC-3 prostate was more than 100 µM throughout. For the same compound, the TGI in the assay with SF-539 CNS and in the assay with SK-MEL-28 melanoma was more than 100 µM throughout.
Consider `C=C(c1ccc(OC)c(/C=C/C(=O)c2cc(OC)c(OC)c(OC)c2)c1)c1cc(OC)c(OC)c(OC)c1`, for which the GI50 is 1.26 µM in the assay on ACHN renal; 0.894 µM in the assay on BT-549 breast; 2.23 µM in the assay on EKVX NSCLC; 2.27 µM in the assay on HOP-62 NSCLC; 1.95 µM with NCI-H23 lung; 1.3 µM in the assay on PC-3 prostate. The GI50 is 1.41 µM in the assay with SF-539 CNS and 1.52 µM in the assay on SK-MEL-28 melanoma. Further, the TGI with ACHN renal is 2.58 µM; in the assay on BT-549 breast, 4.22 µM; in the assay with EKVX NSCLC it was 9.74 µM; in the assay on HOP-62 NSCLC, 6.68 µM; in the assay on NCI-H23 lung, 4.9 µM; in the assay on PC-3 prostate it was 5.31 µM. The TGI in the assay on SF-539 CNS was determined as 3.05 µM; in the assay on SK-MEL-28 melanoma it was 3.45 µM.
Take `Cc1cc(NCCCNc2ccnc3cc(Cl)ccc23)nc(Nc2ccc(C(=O)N3CCCCC3)cc2)n1`: the GI50 in the assay with ACHN renal was 2.85 µM; in the assay with BT-549 breast, 2.31 µM; in the assay on EKVX NSCLC it was 3.65 µM; in the assay on HOP-62 NSCLC, 2.4 µM; with NCI-H23 lung, 4.38 µM; in the assay on PC-3 prostate, 3.9 µM. For the same compound, the GI50 with SF-539 CNS was 1.89 µM; in the assay on SK-MEL-28 melanoma, 2 µM. For the same compound, the TGI in the assay with ACHN renal worked out at 8.23 µM; in the assay with BT-549 breast it was 5.43 µM; with EKVX NSCLC, 16 µM; in the assay on HOP-62 NSCLC, 7.43 µM; in the assay on NCI-H23 lung, 18.6 µM; in the assay with PC-3 prostate it was 14.4 µM. The TGI in the assay with SF-539 CNS worked out at 3.56 µM; with SK-MEL-28 melanoma, 3.75 µM.
For the compound `Cc1ccc(C(=O)Nc2ccc(CN3CCN(C)CC3)c(C(F)(F)F)c2)cc1C#Cc1cnc(N)c2ccc(C#N)cc12`, the GI50 in the assay on ACHN renal is 0.0182 µM; in the assay with BT-549 breast, 10.1 µM; with EKVX NSCLC it was 9.46 µM; in the assay on HOP-62 NSCLC, 1.7 µM; with NCI-H23 lung it was 1.1 µM; with PC-3 prostate, 2.09 µM. In addition, the values for the GI50 in the assay with SF-539 CNS and with SK-MEL-28 melanoma were 3.52 µM and 0.108 µM, respectively. Also, the concentration for total growth inhibition (TGI) in the assay with ACHN renal was 6.23 µM; in the assay with BT-549 breast, more than 50 µM; in the assay on EKVX NSCLC, more than 50 µM; with HOP-62 NSCLC it was 22.9 µM; in the assay on NCI-H23 lung, 18.2 µM; in the assay on PC-3 prostate, 13.8 µM. The figures for the TGI with SF-539 CNS and in the assay with SK-MEL-28 melanoma were 12.3 µM and 3.47 µM, respectively.
Take `CCCCCCCCCCCCCCCCCc1cc(Cl)nc(Cl)n1`: the TGI in the assay on ACHN renal, in the assay on BT-549 breast, in the assay with EKVX NSCLC, in the assay with HOP-62 NSCLC, in the assay on NCI-H23 lung and with PC-3 prostate was more than 100 µM in each case. Moreover, the TGI with SF-539 CNS and with SK-MEL-28 melanoma was more than 100 µM each time.
As to `CC[C@]12C=CCN3CC[C@@]4(c5ccc(OC)cc5N(C)[C@H]4[C@@](O)(C(=O)OC)[C@@H]1OC(=O)CCCC[P+](c1ccccc1)(c1ccccc1)c1ccccc1)[C@@H]32`, the GI50 in the assay with ACHN renal was 14 µM; with BT-549 breast, 0.465 µM; in the assay on EKVX NSCLC, 0.907 µM; in the assay with HOP-62 NSCLC, 2.94 µM; in the assay on NCI-H23 lung, 1.07 µM; in the assay on PC-3 prostate, 0.391 µM. For the same compound, the GI50 with SF-539 CNS was 0.993 µM; in the assay with SK-MEL-28 melanoma it was 0.52 µM. Also, the TGI with ACHN renal stood at 30.1 µM; in the assay on BT-549 breast, 1.94 µM; in the assay with EKVX NSCLC, 15.8 µM; in the assay with HOP-62 NSCLC, 13.7 µM; with NCI-H23 lung it was 10.5 µM; in the assay with PC-3 prostate it was 7.77 µM. For the same compound, the TGI with SF-539 CNS came out at 12.1 µM; with SK-MEL-28 melanoma, 1.84 µM.
In the case of `CC(C)(C)n1nc(C2CC2)cc1NC(=O)Nc1ccc(Cl)cc1`, the TGI in the assay with ACHN renal, with BT-549 breast, in the assay on EKVX NSCLC, in the assay with HOP-62 NSCLC, in the assay on NCI-H23 lung and in the assay with PC-3 prostate was more than 100 µM in each case. For the same compound, the TGI in the assay on SF-539 CNS and in the assay with SK-MEL-28 melanoma was more than 100 µM each time.
As for `C=CC1CC12C(=O)C1OC2(C)C2C(=O)c3c(O)cccc3C(=O)C12` (stereo unspecified), the GI50 in the assay with ACHN renal was 20.1 µM; in the assay on BT-549 breast, 53.4 µM; with EKVX NSCLC, 56.9 µM; in the assay with HOP-62 NSCLC it was more than 100 µM; with NCI-H23 lung, 26.9 µM; with PC-3 prostate it was 25.7 µM. The GI50 is 41.6 µM with SF-539 CNS and 29.1 µM with SK-MEL-28 melanoma. Further, the TGI in the assay on ACHN renal was 46.6 µM; with BT-549 breast it was more than 100 µM; in the assay on EKVX NSCLC, more than 100 µM; in the assay with HOP-62 NSCLC it was more than 100 µM; in the assay on NCI-H23 lung it was 85.6 µM; in the assay with PC-3 prostate, 81.5 µM. Also, the TGI in the assay with SF-539 CNS and in the assay on SK-MEL-28 melanoma was more than 100 µM each time.
Turning to `CCCCCCCC(=O)SCC/C=C/[C@@H]1CC(=O)NCc2cccc(n2)C2=N[C@@](C)(CS2)C(=O)N[C@@H](C(C)C)C(=O)O1`, the concentration for 50% growth inhibition (GI50) is 0.0897 µM in the assay with ACHN renal; 0.19 µM with BT-549 breast; 0.0869 µM in the assay on EKVX NSCLC; 0.0252 µM in the assay on HOP-62 NSCLC; 0.0858 µM in the assay with NCI-H23 lung; 0.0437 µM with PC-3 prostate. For the same compound, the GI50 is 0.0563 µM in the assay with SF-539 CNS and 0.0312 µM in the assay with SK-MEL-28 melanoma. Besides, the TGI in the assay with ACHN renal is 0.693 µM; in the assay with BT-549 breast, more than 33.3 µM; in the assay on EKVX NSCLC, more than 33.3 µM; with HOP-62 NSCLC, more than 33.3 µM; with NCI-H23 lung, more than 33.3 µM; in the assay on PC-3 prostate, more than 33.3 µM. The figures for the TGI in the assay on SF-539 CNS and in the assay on SK-MEL-28 melanoma were more than 33.3 µM and 3.01 µM, respectively.
